“Also recorded” adds a separate entry of the source. Read-outs that look alike come from different tables or passages of the source. One block for each molecule: values may come before it.
Tests used:
hPPAEC [1] = experiment: Effects of CXCR4 agonists / CXCL12 variants on thrombin-induced impairment of hPPAEC monolayer permeability; assay type: cell-based, human
Experimental: FIGS. 3A-3D show effects of CXCL12 and ubiquitin on thrombin-induced impairment of hPPAEC monolayer permeability. hPPAEC were grown to a confluent monolayer on collagen-coated permeable membranes. (A) hPPAEC were pre-treated with vehicle, 100 nM of CXCL12 or ubiquitin for 10 minutes, as indicated, and then exposed to thrombin (50 nM), followed by the addition of FITC-dextran. Vehicle: no thrombin. Endothelial permeability was assessed by measuring the amount of FITC-dextran that permeated through the cell monolayer. No cells: 100% permeability (open circles). RFU: Relative fluorescence units. N=3 in quadruplicate. *: p<0.05 vs. vehicle/thrombin. (B-D) hPPAEC were exposed to 35 nM of thrombin or vehicle. After 10 min, thrombin-exposed cells were treated with vehicle, CXCL12 (50 nM) and/or AMD3100 (10 μM) (B), with vehicle, ubiquitin (50 nM) and/or AMD3100 (10 μM) (C) or with various concentrations of ubiquitin (D) followed by the addition of FITC-dextran. The experimental conditions are indicated. Endothelial permeability was assessed by measuring the amount of FITC-dextran that permeated through the cell monolayer. RFU: Relative fluorescence units. N=3 in quadruplicate. *: p<0.05 vs. thrombin/vehicle (2-way ANOVA/Bonferroni's multiple comparison post hoc test).
(§1) FIGS. 7A-7D show dose-dependent effects of CXCL12α/β, CXCL12 (3-68) and CXCL12 mutants K27A/R41A/R47A, R47E and S-S4V on thrombin-induced impairment of hPPAEC monolayer permeability. hPPAEC cells were grown to a confluent monolayer on collagen-coated permeable membranes. hPPAEC were then exposed to 35 nM of thrombin. After 10 min, thrombin-exposed cells were treated with vehicle or 50 nM (A), 5 nM (B), 0.5 nM (C) or 0.05 nM (D) of the various proteins, as indicated. In (D) 5 nM CXCL12a was used as a positive control. N=3 in quadruplicate.
as §1, with “8A-8D” for “7A-7D”, “CXCL12α, CXCL121” for “CXCL12α/β, CXCL12 (3-68)”, “CXCL122” for “CXCL12 mutants K27A/R41A/R47A, R47E and S-S4V”, “CXCL12α” for “CXCL12a”
FIGS. 9A-9B show inhibition of thrombin-induced hyper-permeability of hPPAEC by CXCL12/CXCL12 variants. % inhibition: % inhibition of thrombin-induced hyperpermeability. Data from FIGS. 7 and 8 at t=255 min. N=3 in quadruplicate. *: p<0.05 vs. CXCL12a (2-way ANOVA/Bonferroni's multiple comparison post hoc test).
(§2) In vitro vascular permeability assays—Permeability assays were obtained from Millipore (ECM642) and performed as per manufacturer's instructions. In brief, 96-well collagen-coated permeability assay plates were pre-hydrated for 15 min, 5×10^5 cells were seeded on each well and grown to a confluent monolayer for 48 hours. Fluorescein isothiocyanate (FITC)-dextran (20 μg/mL) was then added on top of the monolayer and the amount of FITC-dextran that permeated through the monolayer was quantified by measuring fluorescence in a Synergy 2 Multi-mode Microplate Reader (BioTek, Winooski, Vt.) at various time points over a 255 min time period.

CXCR4 = target: T1, CXCR4 (Homo sapiens, UniProt P61073); experiment: Presto-Tango β-arrestin 2 recruitment assay for CXCR4; assay type: cell-based
T1 construct: host or cells: HTLA cells (HEK293 line stably expressing a tTA-dependent luciferase reporter and a β-arrestin2-TEV fusion gene)
T1 sequence (P61073 whole entry, the tested form may be a part): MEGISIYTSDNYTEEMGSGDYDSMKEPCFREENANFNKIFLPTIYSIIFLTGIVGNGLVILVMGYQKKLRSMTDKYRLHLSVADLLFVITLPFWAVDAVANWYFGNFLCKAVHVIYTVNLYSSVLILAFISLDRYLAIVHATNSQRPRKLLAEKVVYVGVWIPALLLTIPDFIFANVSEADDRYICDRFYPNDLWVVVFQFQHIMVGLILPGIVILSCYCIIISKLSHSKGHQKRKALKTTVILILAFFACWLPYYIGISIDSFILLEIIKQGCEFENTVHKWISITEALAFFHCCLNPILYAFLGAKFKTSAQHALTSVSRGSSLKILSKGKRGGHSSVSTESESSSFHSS
Experimental: (§3) FIGS. 6A-6F show Presto-Tango β-arrestin 2 recruitment assays for CXCR4 (A-C) and ACKR3 (D-F). RLU %: % of the luminescence signal for 1 μM CXCL12α. N=9 for CXCL12a and n=3 for all other proteins.
(§4) Presto-Tango β-arrestin 2 recruitment assay—The PRESTO-Tango (parallel receptorome expression and screening via transcriptional out-put, with transcriptional activation following arrestin translocation) assay was performed as recently described. The Tango plasmids were a gift from Dr. Bryan Roth (all from Addgene). HTLA cells (2.5×10^5/well) were seeded in a 6-well plate and transfected with 1.5 μg of the Tango plasmids using Lipofectamine 3000 (ThermoScientific). The following day, transfected HTLA cells (1×10^5 cells/well) were plated onto Poly-L-Lysine pre-coated 96-well micro-plates and allowed to attach to the plate surface for at least 4 hours prior to treatment. Proteins used for treatment were prepared in twice the final concentration in culture media, added at a 1:1 vol/vol ratio and incubated overnight at 37° C., 5% CO2 in a humidified environment. The following morning, media was removed from cell culture plates and replaced with a 100 μL 1:5 mixture of Bright-Glo (Promega) and 1×HBSS, 20 mM HEPES solution. Plates were then incubated at room temperature before measuring luminescence on a Biotek Synergy II plate reader.

ACKR3 = target: T2, ACKR3 (Homo sapiens, UniProt P25106); experiment: Presto-Tango β-arrestin 2 recruitment assay for ACKR3; assay type: cell-based
T2 construct: host or cells: HTLA cells (HEK293 line stably expressing a tTA-dependent luciferase reporter and a β-arrestin2-TEV fusion gene)
T2 sequence (P25106 whole entry, the tested form may be a part): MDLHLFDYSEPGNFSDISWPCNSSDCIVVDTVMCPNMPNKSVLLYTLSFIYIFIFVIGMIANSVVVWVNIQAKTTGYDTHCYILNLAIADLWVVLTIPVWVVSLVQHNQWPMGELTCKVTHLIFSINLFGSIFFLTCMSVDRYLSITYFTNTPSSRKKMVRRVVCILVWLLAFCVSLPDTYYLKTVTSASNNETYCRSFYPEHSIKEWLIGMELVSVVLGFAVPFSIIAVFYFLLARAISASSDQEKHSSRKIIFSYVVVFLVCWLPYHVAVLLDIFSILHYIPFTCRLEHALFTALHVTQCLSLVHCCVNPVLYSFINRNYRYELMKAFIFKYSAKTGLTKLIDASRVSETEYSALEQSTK
Experimental: as §3, §4

hPPAEC [2] = experiment: Thrombin dose-response in hPPAEC monolayer permeability assay; assay type: cell-based, human; conditions: for EC50: read-out: EC50 for thrombin-induced impairment of hPPAEC barrier function; for maximal impairment of endothelial barrier function: 100% = permeability in the absence of hPPAEC
Experimental: FIGS. 2A-2B show impairment of hPPAEC monolayer permeability by thrombin. (A) hPPAEC were grown to a confluent monolayer on collagen-coated permeable membranes and then exposed to different concentration of thrombin for 10 min, followed by the addition of FITC-dextran. Endothelial permeability was assessed by measuring the amount of FITC-dextran that permeated through the cell monolayer. No cells: 100% permeability. RFU: Relative fluorescence units. N=3 in quadruplicate. (B) Dose-response curves for thrombin-induced permeability, data from A. 100% permeability=permeability in the absence of hPPAEC. Open squares: Permeability at t=55 min. Light grey squares: Permeability at t=135 min. Dark grey squares: Permeability at t=255 min. Dose-response curves were generated using nonlinear regression analyses.
as §2
Data analysis—Data are expressed as mean±SEM from n independent experiments that were performed on different days. Data were analyzed with unpaired Student's t test, one- or two-way analyses of variance with Bonferroni's multiple comparison post hoc test, as appropriate. Dose-response curves were generated using nonlinear regression analyses. All analyses were performed with the GraphPad-Prism 7 software. A two-tailed P<0.05 was considered significant.

HULEC-5a = experiment: Thrombin dose-response in HULEC-5a monolayer permeability assay; assay type: cell-based, human; conditions: read-out: EC50 for thrombin-induced impairment of HULEC-5a barrier function
Experimental: FIGS. 4A-4D show effects of CXCL12 and ubiquitin on thrombin-induced impairment of HULEC-5a monolayer permeability. (A) HULEC-5a were grown to a confluent monolayer on collagen-coated permeable membranes and then exposed to different concentration of thrombin for 10 min, followed by the addition of FITC-dextran. Endothelial permeability was assessed by measuring the amount of FITC-dextran that permeated through the cell monolayer. No cells: 100% permeability. RFU: Relative fluorescence units. N=3 in quadruplicate. (B) Dose-response curves for thrombin-induced permeability, data from A. 100% permeability=permeability in the absence of HULEC-5a. Open squares: Permeability at t=55 min. Light grey squares: Permeability at t=135 min. Dark grey squares: Permeability at t=255 min. (C/D) HULEC-5a were grown to a confluent monolayer on collagen-coated permeable membranes and then exposed to 50 nM of thrombin or vehicle. After 10 min, thrombin-exposed cells were treated with vehicle, CXCL12 (50 nM) (C) or ubiquitin (50 nM) (D), followed by the addition of FITC-dextran. The experimental conditions are indicated. Endothelial permeability was assessed by measuring the amount of FITC-dextran that permeated through the cell monolayer. RFU: Relative fluorescence units. N=3 in quadruplicate. *: p<0.05 vs. thrombin/vehicle (2-way ANOVA/Bonferroni's multiple comparison post hoc test).
as §2

[3] = tested on: animal model of acute respiratory distress syndrome (ARDS); experiment: Animal model of ARDS: lung ischemia reperfusion injury plus hemorrhage (P:F ratio, lung injury score); assay type: in vivo, Sprague-Dawley rats; conditions: 0.14 μmol/kg i.v. within 10 min after reperfusion; until t=300 min
Experimental: Animals underwent 70 min of […] lung ischemia for 70 min plus hemorrhage to a MAP of 40 mmHg for the last 30 min of ischemia, followed by fluid resuscitation to a MAP of 60 mmHg until t=300 min. Arrow: drug injection. Dashed lines indicate the P:F ratio (mmHg) threshold values for the diagnosis of mild, moderate and severe ARDS. Vehicle: n=5. CXCL12: n=3. CXCL12: n=4. CXCL12-LM: n=3, CXCL12-LD: n=4. CXCL12 K27A/R41A/R47A: n=3. LI+HEM: lung ischemia reperfusion injury plus hemorrhage. Data are mean±SEM. *: p<0.05 vs. vehicle (2-way ANOVA/Dunnett's multiple comparisons test).
FIGS. 12A-12C show lung histology after treatment with CXCL12 and engineered CXCR4 agonists A. Lung specimens were placed in formalin fixative solution and were then embedded in paraffin wax, sliced into 5 μm sections and stained with H&E. Representative images from H&E stained lung sections from animals after vehicle (left) and CXCL12 ([…], right treatment. B/C. Lung injury scores (B. uninjured (left) lung; C. injured (right) lung). Data are median±interquartile ranges. Data were analyzed with the Kruskal Wallis test with Dunn's multiple comparisons test. The level of statistical significance (p) vs. ctrl. (vehicle treatment) indicated.
We tested therapeutic efficacy of wild-type CXCL12, CXXL12-locked dimer (LD), CXCL12-locked monomer (LM) and the triple mutant CXCL12 K27A/R41A/R47A in an animal model of acute respiratory distress syndrome (ARDS) (FIG. 11). All drugs were injected in a dose of 0.14 μmol/kg. Male Sprague-Dawley rats were anesthetized, orotracheally intubated, instrumented with arterial/venous catheters, and mechanically ventilated (PEEP 2 mmHg, FiO2 1.0). After a right lateral thoracotomy, a suture was tied around the hilum of the right lung. Animals underwent 70 min of right lung ischemia plus hemorrhage to a mean arterial blood pressure (MAP) of 40 mmHg for the last 30 min of lung ischemia. At t=70 min, the suture was removed, animals were ventilated with FiO2 1.0, PEEP 5 mmHg and resuscitated with crystalloids to a MAP of 60 mmHg until t=300 min. Vehicle and drugs were injected i.v. within 10 min after reperfusion.
We further evaluated histomorphology of the lungs from animals treated with vehicle, wild-type CXCL12, CXCL12-LD and CXCXL12-LM utilizing a standardized lung injury score. Lung slides stained with hematoxylin and eosin were examined under a light microscope by 4 investigators blinded to the identity of the specimens. The lung injury score was assessed as previously described/. In brief each investigator rendered a score of 0 (no damage) to 4+(maximal damage) based on an injury grading scale composed of six criteria. The slides were assessed for the extent of alveolar congestion, hemorrhage and edema, as well as alveolar and vessel wall PMN infiltration and alveolar wall thickness. […] Lung injury scores of the uninjured and injured lungs from animals treated with vehicle, wild-type CXCL12, CXCL12-LD and CXCXL12-LM are shown in FIGS. […], respectively.

EC50 (hPPAEC [2]; after 55 min): 30 ± 2 nM
EC50 (hPPAEC [2]; after 135 min): 33 ± 2 nM
EC50 (hPPAEC [2]; after 255 min): 36 ± 2 nM
EC50 (HULEC-5a; after 55 min): 64 ± 7 nM
EC50 (HULEC-5a; after 135 min): 64 ± 6 nM
EC50 (HULEC-5a; after 255 min): 57 ± 5 nM
Molecule: thrombin
maximal impairment of endothelial barrier function (hPPAEC [2]; at 55 min): 49±3%
maximal impairment of endothelial barrier function (hPPAEC [2]; at 135 min): 59±4%
maximal impairment of endothelial barrier function (hPPAEC [2]; at 255 min): 72±4%
time to reach plateau for the permeability-inducing effects (hPPAEC [2]; thrombin 20 nM): 55 min
time to reach plateau for the permeability-inducing effects (hPPAEC [2]; thrombin 40 nM): 135 min
time to reach plateau for the permeability-inducing effects (hPPAEC [2]; thrombin 50 nM): 255 min
time to reach plateau for the permeability-inducing effects (hPPAEC [2]; thrombin 100 nM): 255 min

EC50 (potency) for β-arrestin 2 recruitment to ACKR3 (ACKR3): retained high potency to activate ACKR3
B1: CXCL12 K27A/R41A/R47A: CXCL12 mutant with significantly reduced heparan sulfate proteoglycan binding properties (protein)
chain: KPVSLSYRCPCRFFESHVARANVKHLAILNTPNCALQIVAALKNNNAQVCIDPKLKWIQEYLEKALNK
modifications: ends and bridges not checked
potency to attenuate thrombin-induced permeability of hPPAEC (in words) (hPPAEC [1]): same potency as wild type proteins and CXCL121
potency (EC50) to recruit β-arrestin 2 to CXCR4, compared with CXCL12α (CXCR4): significantly lower than the potency of CXCL12α; also recorded: lowest potency to activate CXCR4
development of ARDS (P:F ratio) [3]: indistinguishable from vehicle treated animals

Second part, the molecule before the results:

Molecule: CXCL12 (3-68): truncated CXCL12 (3-68), N-terminal truncated
effect on thrombin-mediated impairment of hPPAEC barrier function (hPPAEC [1]; thrombin 35 nM, after 10 min 0.05-50 nM protein): did not attenuate thrombin-induced impairment of hPPAEC barrier function
efficacy to recruit β-arrestin 2 to CXCR4 (CXCR4; top plateau, % of signal for 1 μM CXCL12α): lacked relevant CXCR4 activity
efficacy for β-arrestin 2 recruitment to ACKR3 (ACKR3): significantly reduced

Molecule: CXCL12 R47E: CXCL12 mutant which activates CXCR4 with reduced potency
potency (EC50) to recruit β-arrestin 2 to CXCR4, compared with CXCL12α (CXCR4): significantly lower than the potency of CXCL12α
ACKR3 activity (in words) (ACKR3): retains ACKR3 activity comparable to wild type proteins

From US20210052701A1, “Methods of Treating Vascular Leakage Using CXCL12 Peptides” (The Medical College of Wisconsin, Inc., priority 2018, published 2021)
